# Assay results as given in patent EP4813403A1, “USE OF GLP-1R/GIPR DOUBLE-TARGET AGONIST IN PREPARING ANIMAL DRUG” (Hangzhou Zhongmeihuadong Pharmaceutical Co., Ltd., priority 2023, dated 2025).
# Columns and labels:
# Type in all cases: cell-based
# Settings in all cases: ratio of EC50 value of other species to human EC50 value
# monkey GLP-1R = assay: Agonistic activity on GLP-1R of different species (LANCE Ultra cAMP assay): monkey
# Method: The in vitro agonistic activity of the compound of the present invention on GLP-1R was measured in cells stably expressing human, dog, mouse, rat, rabbit, and monkey GLP-1R (human GLP-1R-HEK, dog GLP-1R-HEK, mouse GLP-1R-HEK, rat GLP-1R- in HEK, rabbit GLP-1R-CHO, monkey GLP-1R-HEK cells). Human GLP-1R-HEK, dog GLP-1R-HEK, mouse GLP-1R-HEK, rat GLP-1R-HEK, rabbit GLP-1R-CHO, and monkey GLP-1R-HEK cells were resuspended in 1×Casein Stimulation Buffer (HBSS, 5 mM HEPES, 0.5 mM IBMX, 0.1% casein, pH7.4), and seeded into a 384-well cell culture plate at 9 µL/well (cell numbers being 1000, 1000, 1000, 1500, 1000, 1000 cells/well, respectively). 1 µL of 1×Casein Stimulation Buffer containing 10× compound was added to the above-mentioned 384-well cell culture plate. The plate was incubated at 37 °C for 30 minutes. After the incubation was completed, 5 µL of Eu-cAMP working solution and 5 µL of Ulight^TM-cAMP working solution were added sequentially, centrifuged and then incubated at room temperature for 1 hour. The readings at 665 nm and 620 nm were determined with a 330 nm excitation light on a microplate reader. The 665 nm/620 nm reading ratio was calculated. […] GraphPad was used to perform nonlinear regression according to the response percentage and the concentration of the compound added to obtain the EC50 value for each compound.
# rat GIPR = biological target: T1, rat GIPR (Rattus norvegicus, UniProt P43219); assay: Agonistic activity on GIPR of different species (LANCE Ultra cAMP assay): rat
# T1 construct: expressed in transfected cells; host or cells: CHO-K1 (transient)
# T1 sequence (P43219 19-455): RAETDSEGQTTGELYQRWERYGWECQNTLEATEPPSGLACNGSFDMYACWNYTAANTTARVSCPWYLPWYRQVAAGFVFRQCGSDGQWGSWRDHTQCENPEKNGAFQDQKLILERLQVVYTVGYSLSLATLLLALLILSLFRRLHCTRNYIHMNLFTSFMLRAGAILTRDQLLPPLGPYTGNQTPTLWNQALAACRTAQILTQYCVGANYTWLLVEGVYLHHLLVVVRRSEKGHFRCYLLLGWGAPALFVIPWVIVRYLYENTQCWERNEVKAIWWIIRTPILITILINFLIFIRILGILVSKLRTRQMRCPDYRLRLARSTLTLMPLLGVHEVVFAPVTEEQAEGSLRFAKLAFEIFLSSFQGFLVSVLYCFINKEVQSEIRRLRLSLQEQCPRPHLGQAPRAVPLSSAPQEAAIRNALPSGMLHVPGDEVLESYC
# rabbit GIPR = biological target: T2, rabbit GIPR (Oryctolagus cuniculus, UniProt G1T265); assay: Agonistic activity on GIPR of different species (LANCE Ultra cAMP assay): rabbit
# T2 construct: expressed in transfected cells; host or cells: CHO-K1 (transient)
# T2 sequence (G1T265 23-468): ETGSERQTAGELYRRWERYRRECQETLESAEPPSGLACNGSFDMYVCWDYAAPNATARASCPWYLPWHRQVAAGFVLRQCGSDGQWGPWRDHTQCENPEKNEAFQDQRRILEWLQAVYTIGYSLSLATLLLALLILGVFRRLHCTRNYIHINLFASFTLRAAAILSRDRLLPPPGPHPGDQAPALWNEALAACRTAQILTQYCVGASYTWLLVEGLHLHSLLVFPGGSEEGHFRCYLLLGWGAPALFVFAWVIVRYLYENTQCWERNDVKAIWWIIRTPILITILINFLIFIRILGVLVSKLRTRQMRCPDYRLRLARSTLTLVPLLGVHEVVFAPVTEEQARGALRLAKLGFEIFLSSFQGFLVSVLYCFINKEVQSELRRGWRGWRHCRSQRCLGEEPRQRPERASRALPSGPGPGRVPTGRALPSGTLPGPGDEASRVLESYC
# Method: (§1) CHO-K1 cells were seeded in a 6-well plate at 0.6×10^6 cells/well and incubated overnight in an incubator at a temperature of 37 °C and a carbon dioxide concentration of 5%. The next day, CHO-K1 cell media were replaced. Then two tubes A and B were prepared for each plasmid. 100 µL Opti-MEM was added to tube A, then 4 µL Lipofectamine™ 3000 was added and mixed uniformly. 100 µL Opti-MEM was firstly added to tube B, then 2 µg of one of the plasmids (human GIPR-pcDNA5 (+) plasmid, dog GIPR-pcDNA5 (+) plasmid, mouse GIPR-pcDNA5 (+) plasmid, rat GIPR-pcDNA5 (+) plasmid, rabbit GIPR-pcDNA5 (+) plasmid, monkey GIPR-pcDNA5 (+) plasmid) was added and mixed uniformly, and 4 µL P3000™ was added to tube B and mixed uniformly (the ratio of plasmid to transfection reagent was 1 µg: 2 µL). […]
# (§2) 18-20 hours after transfection, human GIPR-CHO, dog GIPR-CHO, mouse GIPR-CHO, rat GIPR-CHO, rabbit GIPR-CHO, and monkey GIPR-CHO cells were resuspended in 1×Casein Stimulation Buffer (HBSS, 5 mM HEPES, 0.5 mM IBMX, 0.1% casein, pH7.4), and seeded into a 384-well cell culture plate at 9 µL/well (cell numbers being 1000, 2000, 2000, 2000, 2000, 2000 cells/well, respectively). […] The readings at 665 nm and 620 nm were determined with a 330 nm excitation light on a microplate reader. The 665 nm/620 nm reading ratio was calculated. […]
# monkey GIPR = assay: Agonistic activity on GIPR of different species (LANCE Ultra cAMP assay): monkey
# Method: as §1, §2
structure (smiles),measurement,setting,value
CC[C@H](C)[C@H](NC(=O)C(C)(C)NC(=O)[C@H](Cc1ccc(O)cc1)NC(=O)[C@H](CC(=O)O)NC(=O)[C@H](CO)NC(=O)[C@@H](NC(=O)C(C)(Cc1ccccc1)NC(=O)[C@@H](NC(=O)CNC(=O)[C@H](CCC(=O)O)NC(=O)C(C)(C)NC(=O)[C@@H](N)Cc1ccc(O)cc1)[C@@H](C)O)[C@@H](C)O)C(=O)NC(C)(C)C(=O)N[C@@H](CC(C)C)C(=O)N[C@@H](CC(=O)O)C(=O)N[C@@H](CCCCN)C(=O)N[C@@H](CCC(N)=O)C(=O)N[C@@H](C)C(=O)N[C@@H](CCC(N)=O)C(=O)N[C@@H](C)C(=O)N[C@@H](CCC(=O)O)C(=O)N[C@@H](Cc1ccccc1)C(=O)N[C@H](C(=O)N[C@@H](CCCCNC(=O)COCCOCCNC(=O)COCCOCCNC(=O)COCCOCCNC(=O)CC[C@H](NC(=O)CCCCCCCCCCCCCCCCCCCCC(=O)O)C(=O)O)C(=O)N[C@@H](Cc1c[nH]c2ccccc12)C(=O)N[C@@H](CC(C)C)C(=O)N[C@@H](CC(C)C)C(=O)N[C@@H](CCCCN)C(=O)NCC(=O)NCC(=O)N1CCC[C@H]1C(=O)N[C@@H](CO)C(=O)N[C@@H](CO)C(=O)NCC(=O)N[C@@H](C)C(=O)N1CCC[C@H]1C(=O)N1CCC[C@H]1C(=O)N1CCC[C@H]1C(=O)N[C@@H](CO)C(=O)N[C@@H](CCCCN)C(N)=O)C(C)C (stereo partly shown) [Compound P016],GLP-1R EC50 ratio,monkey GLP-1R,2.66
same,GIPR EC50 ratio,rat GIPR,2.22
same,GIPR EC50 ratio,rabbit GIPR,5.34
same,GIPR EC50 ratio,monkey GIPR,5.77
